Measurements published in the NIST ThermoML archive (doi:10.1021/je050367p).
± gives the expanded uncertainty stated by the source.

Legend:
[1] = refractive index (Na D-line) (dimensionless); xn = mol fraction of the nth substance listed; details: 100.8 kPa, Liquid, Standard Abbe refractometry
[2] = xn = mol fraction of the nth substance listed; details: 288.15 K, 100.8 kPa, Liquid; for viscosity: Capillary tube (Ostwald / Ubbelohde) method

## CC(C)OC(C)C [diisopropyl ether] + CC(C)CC(C)(C)C
[1]; 288.15 K, x1 = 0.05
  refractive index: 1.39293 ± 0.00031
[1]; 288.15 K, x1 = 0.1
  refractive index: 1.39183 ± 0.00031
[1]; 288.15 K, x1 = 0.15
  refractive index: 1.39072 ± 0.00031
[1]; 288.15 K, x1 = 0.2
  refractive index: 1.3896 ± 0.00031
[1]; 288.15 K, x1 = 0.25
  refractive index: 1.38846 ± 0.00031
[1]; 288.15 K, x1 = 0.3
  refractive index: 1.38733 ± 0.00031
[1]; 288.15 K, x1 = 0.35
  refractive index: 1.38619 ± 0.00031
[1]; 288.15 K, x1 = 0.4
  refractive index: 1.38504 ± 0.00031
[1]; 288.15 K, x1 = 0.45
  refractive index: 1.3839 ± 0.00031
[1]; 288.15 K, x1 = 0.5
  refractive index: 1.38274 ± 0.00031
[1]; 288.15 K, x1 = 0.55
  refractive index: 1.38158 ± 0.00031
[1]; 288.15 K, x1 = 0.6
  refractive index: 1.38042 ± 0.00031
[1]; 288.15 K, x1 = 0.65
  refractive index: 1.37926 ± 0.00031
[1]; 288.15 K, x1 = 0.7
  refractive index: 1.37809 ± 0.00031
[1]; 288.15 K, x1 = 0.75
  refractive index: 1.37691 ± 0.00031
[1]; 288.15 K, x1 = 0.8
  refractive index: 1.37573 ± 0.00031
[1]; 288.15 K, x1 = 0.85
  refractive index: 1.37456 ± 0.00032
[1]; 288.15 K, x1 = 0.9
  refractive index: 1.37337 ± 0.00032
[1]; 288.15 K, x1 = 0.9499
  refractive index: 1.37217 ± 0.00032
[1]; 288.15 K, x1 = 1
  refractive index: 1.37093 ± 0.00032
[1]; 298.15 K, x1 = 0.05
  refractive index: 1.38786 ± 0.00031
[1]; 298.15 K, x1 = 0.1
  refractive index: 1.38672 ± 0.00031
[1]; 298.15 K, x1 = 0.15
  refractive index: 1.38557 ± 0.00031
[1]; 298.15 K, x1 = 0.2
  refractive index: 1.38443 ± 0.00031
[1]; 298.15 K, x1 = 0.25
  refractive index: 1.38326 ± 0.00031
[1]; 298.15 K, x1 = 0.3
  refractive index: 1.38209 ± 0.00031
[1]; 298.15 K, x1 = 0.35
  refractive index: 1.38092 ± 0.00031
[1]; 298.15 K, x1 = 0.4
  refractive index: 1.37974 ± 0.00031
[1]; 298.15 K, x1 = 0.45
  refractive index: 1.37856 ± 0.00031
[1]; 298.15 K, x1 = 0.5
  refractive index: 1.37737 ± 0.00031
[1]; 298.15 K, x1 = 0.55
  refractive index: 1.37618 ± 0.00031
[1]; 298.15 K, x1 = 0.6
  refractive index: 1.37499 ± 0.00031
[1]; 298.15 K, x1 = 0.65
  refractive index: 1.3738 ± 0.00031
[1]; 298.15 K, x1 = 0.7
  refractive index: 1.37259 ± 0.00031
[1]; 298.15 K, x1 = 0.75
  refractive index: 1.37138 ± 0.00031
[1]; 298.15 K, x1 = 0.8
  refractive index: 1.37016 ± 0.00031
[1]; 298.15 K, x1 = 0.85
  refractive index: 1.36896 ± 0.00032
[1]; 298.15 K, x1 = 0.9
  refractive index: 1.36774 ± 0.00032
[1]; 298.15 K, x1 = 0.9499
  refractive index: 1.3665 ± 0.00032
[1]; 298.15 K, x1 = 1
  refractive index: 1.36524 ± 0.00032
[1]; 308.15 K, x1 = 0.05
  refractive index: 1.38277 ± 0.00031
[1]; 308.15 K, x1 = 0.1
  refractive index: 1.38159 ± 0.00031
[1]; 308.15 K, x1 = 0.15
  refractive index: 1.38042 ± 0.00031
[1]; 308.15 K, x1 = 0.2
  refractive index: 1.37924 ± 0.00031
[1]; 308.15 K, x1 = 0.25
  refractive index: 1.37803 ± 0.00031
[1]; 308.15 K, x1 = 0.3
  refractive index: 1.37682 ± 0.00031
[1]; 308.15 K, x1 = 0.35
  refractive index: 1.37561 ± 0.00031
[1]; 308.15 K, x1 = 0.4
  refractive index: 1.3744 ± 0.00031
[1]; 308.15 K, x1 = 0.45
  refractive index: 1.37317 ± 0.00031
[1]; 308.15 K, x1 = 0.5
  refractive index: 1.37195 ± 0.00031
[1]; 308.15 K, x1 = 0.55
  refractive index: 1.37072 ± 0.00031
[1]; 308.15 K, x1 = 0.6
  refractive index: 1.36949 ± 0.00031
[1]; 308.15 K, x1 = 0.65
  refractive index: 1.36826 ± 0.00031
[1]; 308.15 K, x1 = 0.7
  refractive index: 1.36703 ± 0.00031
[1]; 308.15 K, x1 = 0.75
  refractive index: 1.36578 ± 0.00031
[1]; 308.15 K, x1 = 0.8
  refractive index: 1.36452 ± 0.00031
[1]; 308.15 K, x1 = 0.85
  refractive index: 1.36327 ± 0.00032
[1]; 308.15 K, x1 = 0.9
  refractive index: 1.36201 ± 0.00032
[1]; 308.15 K, x1 = 0.9499
  refractive index: 1.36073 ± 0.00032
[1]; 308.15 K, x1 = 1
  refractive index: 1.35944 ± 0.00032
[2]; x1 = 0.05
  viscosity: 0.523 ± 0.007 mPa·s
  mass density: 697.2 ± 0.31 kg/m3
[2]; x1 = 0.1
  viscosity: 0.511 ± 0.007 mPa·s
  mass density: 698.46 ± 0.31 kg/m3
[2]; x1 = 0.15
  viscosity: 0.498 ± 0.007 mPa·s
  mass density: 699.73 ± 0.31 kg/m3
[2]; x1 = 0.2
  viscosity: 0.486 ± 0.007 mPa·s
  mass density: 701.06 ± 0.31 kg/m3
[2]; x1 = 0.25
  viscosity: 0.474 ± 0.007 mPa·s
  mass density: 702.44 ± 0.31 kg/m3
[2]; x1 = 0.3
  viscosity: 0.463 ± 0.007 mPa·s
  mass density: 703.86 ± 0.3 kg/m3
[2]; x1 = 0.35
  viscosity: 0.452 ± 0.007 mPa·s
  mass density: 705.33 ± 0.3 kg/m3
[2]; x1 = 0.4
  viscosity: 0.442 ± 0.007 mPa·s
  mass density: 706.84 ± 0.3 kg/m3
[2]; x1 = 0.45
  viscosity: 0.432 ± 0.007 mPa·s
  mass density: 708.37 ± 0.3 kg/m3
[2]; x1 = 0.5
  viscosity: 0.423 ± 0.007 mPa·s
  mass density: 709.97 ± 0.3 kg/m3
[2]; x1 = 0.55
  viscosity: 0.414 ± 0.007 mPa·s
[2]; x1 = 0.6
  viscosity: 0.405 ± 0.007 mPa·s
[2]; x1 = 0.65
  viscosity: 0.397 ± 0.007 mPa·s
[2]; x1 = 0.7
  viscosity: 0.389 ± 0.007 mPa·s
[2]; x1 = 0.75
  viscosity: 0.382 ± 0.007 mPa·s
[2]; x1 = 0.8
  viscosity: 0.375 ± 0.007 mPa·s
[2]; x1 = 0.85
  viscosity: 0.368 ± 0.007 mPa·s
[2]; x1 = 0.9
  viscosity: 0.361 ± 0.007 mPa·s
[2]; x1 = 0.9499
  viscosity: 0.354 ± 0.007 mPa·s
[2]; x1 = 1
  viscosity: 0.348 ± 0.007 mPa·s
